Structures are written as SMILES.

For assay [1], the system named is IL-2 production in human peripheral blood mononuclear cell (PBMC). The assay is described as follows: Human PBMC CD3/CD28-induced IL-2 production inhibition test. It counts as cell-based. Conditions: 48 h, CD3/CD28 stimulation, incubation for 2 days, ELISA. An excerpt:
Human Peripheral Blood Mononuclear Cell (PBMC) CD3/CD28-Induced IL-2 Production Inhibition Test
PBMC was separated and collected by using Ficoll-Paque (17-1440-02 manufactured by GE Healthcare Japan Corp.) from blood collected from healthy human adult in the presence of heparin. RPMI1640 medium (manufactured by GIBCO/Thermo Fisher Scientific, Inc., REF. 11875) containing 10% FBS (manufactured by GIBCO/Thermo Fisher Scientific, Inc. REF. 10082) and containing a test compound dissolved in DMSO and 2 μg/mL anti-hCD28 (manufactured by R&D Systems, Inc., Cat. No. MAB342) was added at 100 μL/well to T cell Activation Plate Anti-Human CD3 96-well plate (manufactured by Corning Inc., REF. 354725), and subsequently, a PBMC suspension adjusted such that the number of cells was 2×10^6 cells/mL was added at 100 μL/well (final DMSO concentration: 0.1%). A RPMI1640 medium containing 10% FBS and containing 0.1% DMSO and 2 μg/mL anti-hCD28 was similarly added to wells not supplemented with the test compound. After incubation for 2 days in a carbon dioxide incubator, the culture supernatant was collected. The collected culture supernatant was stored at −20° C. until IL-2 content measurement.
In the measurement of IL-2 content in the culture supernatant, a sandwich ELISA kit Quantikine Human IL-2 (manufactured by R&D Systems, Inc., Cat. No. S2050) was used. The IL-2 content of each sample was calculated from the calibration curve of Standard IL-2 included in the kit. When the amount of IL-2 produced by CD3/CD28 stimulation in the case of the addition of only DMSO was defined as 100%, the rate of inhibition of IL-2 production at each concentration of the test compound was calculated. A test compound concentration inhibiting 50% of IL-2 production was calculated as an IC50 value (nM) from the concentration of the added test compound and the rate of inhibition of IL-2 production by the test compound by using EXSUS (version 8.0.0 or version 8.0.1, manufactured by CAC Exicare Corp.).
A general note: An ELISA detects its analyte on a solid surface through an enzyme-linked reagent.

For the next assay, the target named is T1, CDK7 (Homo sapiens, UniProt P50613).
T1 construct: purchased Carna Biosciences, Inc. 04-108
T1 sequence (P50613 whole entry): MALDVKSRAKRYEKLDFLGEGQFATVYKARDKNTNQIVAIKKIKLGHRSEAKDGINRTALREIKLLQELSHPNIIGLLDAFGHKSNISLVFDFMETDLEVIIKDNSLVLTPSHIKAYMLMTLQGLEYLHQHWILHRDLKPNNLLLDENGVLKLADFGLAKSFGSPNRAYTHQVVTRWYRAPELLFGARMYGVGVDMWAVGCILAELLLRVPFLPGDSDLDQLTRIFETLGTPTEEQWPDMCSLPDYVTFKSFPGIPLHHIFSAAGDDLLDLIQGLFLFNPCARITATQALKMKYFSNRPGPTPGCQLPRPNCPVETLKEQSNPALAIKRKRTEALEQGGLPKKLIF
T1 sequence (P51946 whole entry partner): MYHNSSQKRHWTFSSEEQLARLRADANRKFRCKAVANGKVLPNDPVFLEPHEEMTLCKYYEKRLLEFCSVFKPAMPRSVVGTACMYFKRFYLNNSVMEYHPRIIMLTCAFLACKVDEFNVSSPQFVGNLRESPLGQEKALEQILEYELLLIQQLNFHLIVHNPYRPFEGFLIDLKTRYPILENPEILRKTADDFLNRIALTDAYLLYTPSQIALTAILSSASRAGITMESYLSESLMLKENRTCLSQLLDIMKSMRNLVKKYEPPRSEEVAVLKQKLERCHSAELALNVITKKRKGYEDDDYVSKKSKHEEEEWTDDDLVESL
T1 sequence (P51948 whole entry partner): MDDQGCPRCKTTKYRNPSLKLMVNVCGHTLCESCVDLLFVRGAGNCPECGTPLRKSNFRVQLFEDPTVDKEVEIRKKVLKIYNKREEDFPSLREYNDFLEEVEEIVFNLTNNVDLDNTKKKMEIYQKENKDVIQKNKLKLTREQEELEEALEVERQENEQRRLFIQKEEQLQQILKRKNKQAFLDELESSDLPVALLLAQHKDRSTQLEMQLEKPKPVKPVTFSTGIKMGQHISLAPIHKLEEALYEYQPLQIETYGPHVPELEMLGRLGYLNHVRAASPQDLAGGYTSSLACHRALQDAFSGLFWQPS
Nature of the assay: CDK7 enzyme inhibition test. Conditions: Ki=IC50/(1+S/Km); 33P bound to MBP, [γ-33P]ATP, 30° C. for 20 minutes; read-out: Ki value of CDK7 inhibitory activity. It counts as biochemical. The essentials:
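Recombinant CDK7 with MBP substrate and [γ-33P]ATP (500 μM solution, diluted into the mix) in HEPES pH 7.4/DTT/Triton X-100/MgCl2, 20 min at 30 °C. TCA-precipitated 33P-MBP counted by scintillation; IC50 from inhibition, Ki = IC50/(1+S/Km).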

The target in another assay is T2, PAK4 (Homo sapiens, UniProt O96013).
T2 construct: purchased Invitrogen Corp. PV4212
T2 sequence (O96013 whole entry): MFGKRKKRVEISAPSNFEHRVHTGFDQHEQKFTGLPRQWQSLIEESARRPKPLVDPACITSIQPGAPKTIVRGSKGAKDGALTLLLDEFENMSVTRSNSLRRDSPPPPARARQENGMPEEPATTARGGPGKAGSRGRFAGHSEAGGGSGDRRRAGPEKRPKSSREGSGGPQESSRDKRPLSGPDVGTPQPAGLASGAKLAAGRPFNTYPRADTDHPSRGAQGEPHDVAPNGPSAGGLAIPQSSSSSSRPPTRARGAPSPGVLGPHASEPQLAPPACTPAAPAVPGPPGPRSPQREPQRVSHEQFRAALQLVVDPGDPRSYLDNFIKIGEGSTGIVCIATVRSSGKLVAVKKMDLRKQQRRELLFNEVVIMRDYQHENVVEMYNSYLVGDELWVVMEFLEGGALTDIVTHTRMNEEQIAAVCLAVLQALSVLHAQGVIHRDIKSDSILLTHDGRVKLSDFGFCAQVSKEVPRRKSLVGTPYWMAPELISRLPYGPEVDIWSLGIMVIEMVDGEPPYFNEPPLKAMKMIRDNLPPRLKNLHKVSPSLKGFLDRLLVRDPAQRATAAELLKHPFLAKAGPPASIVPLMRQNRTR
Nature of the assay: PAK4 enzyme inhibition test. Conditions: Ki=IC50/(1+S/Km); 33P bound to MBP, [γ-33P]ATP, 30° C. for 20 minutes; read-out: Ki value of PAK4 inhibitory activity. It counts as biochemical. The gist of the method: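 Radiometric assay: PAK4 with MBP substrate and 40 μM [γ-^33P]ATP solution in Tris pH 7.5 buffer with MgCl2, DTT, EGTA, reacted 20 min at 30 °C. TCA-precipitated, washed ^33P-MBP counted by scintillation. IC50 from inhibition of ^33P incorporation; Ki = IC50/(1+S/Km).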

Broadly, the IC50 is the concentration at which inhibition is half-maximal. What is called Ki is the dissociation constant of the complex between target and ligand, obtained from inhibition or displacement. `CC[Si](C)(C)C1(C(=O)Nc2n[nH]c3c2CN(C(=O)[C@H](OC)c2ccccc2)C3(C)C)CCC1` [IV-1178, (R)-1-(Ethyldimethylsilyl)-N-[5-(2-methoxy-2-phenylacetyl)-6,6-dimethyl-1,4,5,6-tetrahydropyrrolo[3,4-c]pyrazol-3-yl] cyclobutanecarboxamide]: the 50% inhibitory concentration (IC50) in assay [1] is at most 50 nM. Moreover, on CDK7, the Ki is at most 50 nM.

In the case of `CC1(C)c2[nH]nc(NC(=O)C3([Si](C)(C)C)CCC3)c2CN1C(=O)NCCO` [IV-438, N-(2-Hydroxyethyl)-6,6-dimethyl-3-[1-(trimethylsilyl)cyclobutanecarboxamido]-4,6-dihydropyrrolo[3,4-c]pyrazole-5(1H)-carboxamide], the inhibition constant (Ki) on PAK4 is at least 500 nM; on CDK7, at most 50 nM.

For `CC(C)O[C@@H](C(=O)N1Cc2c(NC(=O)C3([Si](C)(C)C)CCC3)n[nH]c2C1(C)C)c1ccccc1` [IV-1204, (R)—N-[5-(2-Isopropoxy-2-phenylacetyl)-6,6-dimethyl-1,4,5,6-tetrahydropyrrolo[3,4-c]pyrazol-3-yl]-1-(trimethylsilyl)cyclobutanecarboxamide], the inhibitory constant (Ki) is at least 500 nM on PAK4 and at most 50 nM at CDK7.

As to `CO[C@@H](C(=O)N1Cc2c(NC(=O)C3([Si](C)(C)C)CCC3)n[nH]c2C1(C)C)c1ccccc1` [IV-1175, (R)—N-[5-(2-Methoxy-2-phenylacetyl)-6,6-dimethyl-1,4,5,6-tetrahydropyrrolo[3,4-c]pyrazol-3-yl]-1-(trimethylsilyl)cyclobutanecarboxamide], the IC50 in assay [1] is at most 50 nM. The Ki at CDK7 was at most 50 nM.

With `CC(C)(CO)C(NC(=O)N1Cc2c(NC(=O)C3([Si](C)(C)C)CCC3)n[nH]c2C1(C)C)c1ccccc1` (single isomer, unassigned; (-)) [IV-673, (−)-N-(3-Hydroxy-2,2-dimethyl-1-phenylpropyl)-6,6-dimethyl-3-[1-(trimethylsilyl)cyclobutanecarboxamido]-4,6-dihydropyrrolo[3,4-c]pyrazole-5(1H)-carboxamide], the Ki at PAK4 is at least 500 nM; on CDK7, at most 50 nM.

Take `CC1(C)c2[nH]nc(NC(=O)C3([Si](C)(C)C)CCC3)c2CN1C(=O)O[C@H](CO)c1ccccc1` [IV-2, (S)-2-Hydroxy-1-phenylethyl 6,6-dimethyl-3-[1-(trimethylsilyl)cyclobutanecarboxamido]-4,6-dihydropyrrolo[3,4-c]pyrazole-5(1H)-carboxylate]: the Ki at PAK4 is at least 500 nM; on CDK7, at most 50 nM.

`C[C@@H](CO)NC(=O)N1Cc2c(NC(=O)C3([Si](C)(C)C)CCC3)n[nH]c2C1(C)C` [IV-455, (S)—N-(1-Hydroxypropan-2-yl)-6,6-dimethyl-3-[1-(trimethylsilyl)cyclobutanecarboxamido]-4,6-dihydropyrrolo[3,4-c]pyrazole-5(1H)-carboxamide]: the Ki at PAK4 is at least 500 nM; on CDK7, at most 50 nM.

With `CC1(C)c2[nH]nc(NC(=O)C3([Si](C)(C)C)CCC3)c2CN1C(=O)N[C@H](CO)C1CCCCC1` [IV-495, (S)—N-(1-Cyclohexyl-2-hydroxyethyl)-6,6-dimethyl-3-[1-(trimethylsilyl)cyclobutanecarboxamido]-4,6-dihydropyrrolo[3,4-c]pyrazole-5(1H)-carboxamide], the Ki was at least 500 nM at PAK4 and at most 50 nM on CDK7.

`CCOC[C@@H](NC(=O)N1Cc2c(NC(=O)C3([Si](C)(C)C)CCC3)n[nH]c2C1(C)C)c1ccccc1` [IV-139, (S)—N-(2-Ethoxy-1-phenylethyl)-6,6-dimethyl-3-[1-(trimethylsilyl)cyclobutanecarboxamido]-4,6-dihydropyrrolo[3,4-c]pyrazole-5(1H)-carboxamide] showed a half-inhibitory concentration (IC50) in assay [1] of at most 50 nM. Moreover, the Ki at CDK7 was at most 50 nM.

As for `CC(C)(O)C[C@@H](NC(=O)N1Cc2c(NC(=O)C3([Si](C)(C)C)CCC3)n[nH]c2C1(C)C)c1cccc(F)c1` [IV-911, (R)—N-[1-(3-Fluorophenyl)-3-hydroxy-3-methylbutyl]-6,6-dimethyl-3-[1-(trimethylsilyl)cyclobutanecarboxamido]-4,6-dihydropyrrolo[3,4-c]pyrazole-5(1H)-carboxamide], the Ki is at least 500 nM at PAK4 and at most 50 nM at CDK7.

For the molecule `CO[C@@H](C(=O)N1Cc2c(NC(=O)C3([Si](C)(C)C)CCC3)n[nH]c2C1(C)C)c1ccccc1F` [IV-1383, (R)—N-{5-[2-(2-Fluorophenyl)-2-methoxyacetyl]-6,6-dimethyl-1,4,5,6-tetrahydropyrrolo[3,4-c]pyrazol-3-yl}-1-(trimethylsilyl)cyclobutanecarboxamide], the Ki at PAK4 is at least 500 nM; at CDK7, at most 50 nM.

As to `CCO[C@@H](C(=O)N1Cc2c(NC(=O)C3([Si](C)(C)C)CCC3)n[nH]c2C1(C)C)c1ccccc1` [IV-1188, (R)—N-[5-(2-Ethoxy-2-phenylacetyl)-6,6-dimethyl-1,4,5,6-tetrahydropyrrolo[3,4-c]pyrazol-3-yl]-1-(trimethylsilyl)cyclobutanecarboxamide], the half-maximal inhibitory concentration (IC50) in assay [1] was at most 50 nM. Besides, the Ki at CDK7 is at most 50 nM.

For the molecule `CN(C(=O)N1Cc2c(NC(=O)C3([Si](C)(C)C)CCC3)n[nH]c2C1(C)C)[C@H](CO)c1ccccc1` [IV-119, (S)—N-(2-Hydroxy-1-phenylethyl)-N,6,6-trimethyl-3-[1-(trimethylsilyl)cyclobutanecarboxamido]-4,6-dihydropyrrolo[3,4-c]pyrazole-5(1H)-carboxamide], the inhibitory constant (Ki) at PAK4 is at least 500 nM; at CDK7, at most 50 nM.

For the molecule `COC(C(=O)N1Cc2c(NC(=O)C3([Si](C)(C)C)CCC3)n[nH]c2C1(C)C)c1cccs1` (stereo not shown) [IV-1546, N-{5-[2-Methoxy-2-(thiophen-2-yl)acetyl]-6,6-dimethyl-1,4,5,6-tetrahydropyrrolo[3,4-c]pyrazol-3-yl}-1-(trimethylsilyl)cyclobutanecarboxamide], the values for the Ki at PAK4 and at CDK7 were at least 500 nM and at most 50 nM, respectively.

Regarding `COC(C(=O)N1Cc2c(NC(=O)C3([Si](C)(C)C)CCC3)n[nH]c2C1(C)C)c1cccc(F)c1` (stereo not shown) [IV-1404, N-{5-[2-(3-Fluorophenyl)-2-methoxyacetyl]-6,6-dimethyl-1,4,5,6-tetrahydropyrrolo[3,4-c]pyrazol-3-yl}-1-(trimethylsilyl)cyclobutanecarboxamide], the Ki on PAK4 was at least 500 nM; at CDK7, at most 50 nM.

For `CC(C)(CO)C(NC(=O)N1Cc2c(NC(=O)C3([Si](C)(C)C)CCC3)n[nH]c2C1(C)C)c1ccccc1` (racemic) [IV-354, N-(3-Hydroxy-2,2-dimethyl-1-phenylpropyl)-6,6-dimethyl-3-[1-(trimethylsilyl)cyclobutanecarboxamido]-4,6-dihydropyrrolo[3,4-c]pyrazole-5(1H)-carboxamide], in assay [1], the IC50 is at most 50 nM.

For the molecule `CC1(C)c2[nH]nc(NC(=O)C3([Si](C)(C)C)CCC3)c2CN1C(=O)N[C@H](CCCCO)c1ccccc1` [IV-291, (R)—N-(5-Hydroxy-1-phenylpentyl)-6,6-dimethyl-3-[1-(trimethylsilyl)cyclobutanecarboxamido]-4,6-dihydropyrrolo[3,4-c]pyrazole-5(1H)-carboxamide], the inhibition constant Ki is at least 500 nM at PAK4 and at most 50 nM at CDK7.

For `CC1(C)c2[nH]nc(NC(=O)C3([Si](C)(C)C)CCC3)c2CN1C(=O)N[C@H](CC1(O)CC1)c1ccccc1` [IV-743, (R)—N-[2-(1-Hydroxycyclopropyl)-1-phenylethyl]-6,6-dimethyl-3-[1-(trimethylsilyl)cyclobutanecarboxamido]-4,6-dihydropyrrolo[3,4-c]pyrazole-5(1H)-carboxamide], the Ki on PAK4 was at least 500 nM; on CDK7 it was at most 50 nM.

`CC1(C)c2[nH]nc(NC(=O)C3([Si](C)(C)C)CCC3)c2CN1C(=O)[C@H](OC(F)F)c1ccccc1` [IV-1180, (R)—N-{5-[2-(Difluoromethoxy)-2-phenylacetyl]-6,6-dimethyl-1,4,5,6-tetrahydropyrrolo[3,4-c]pyrazol-3-yl}-1-(trimethylsilyl)cyclobutanecarboxamide] yielded a half-inhibitory concentration (IC50) in assay [1] of at most 50 nM. On CDK7, the Ki was at most 50 nM.

For the origin of these results see US10131679B2, “Substituted dihydropyrrolopyrazole compound” (UBE INDUSTRIES, LTD., priority 2014, dated 2018).
